This experiment addresses PDE1B (Homo sapiens, UniProt Q01064). In words: In vitro HTRF PDE1 inhibition assay (PDE1B). Format: biochemical. On the technique in general: TR-FRET usually uses a lanthanide donor and a delayed reading to cut background.
The mark [1] stands for this setting: in vitro PDE1B HTRF Assay, read-out: IC50.

From US20180044343A1, “BICYCLIC IMIDAZOLO DERIVATIVE” (Sumitomo Dainippon Pharma Co., Ltd., priority 2015, published 2018) come the findings set out here.

In general, IC50 refers to the point on the concentration scale where inhibition reaches its midpoint.

Like-named read-outs stand apart in the source and are kept apart here.

Sequence of PDE1B (Q01064 whole entry): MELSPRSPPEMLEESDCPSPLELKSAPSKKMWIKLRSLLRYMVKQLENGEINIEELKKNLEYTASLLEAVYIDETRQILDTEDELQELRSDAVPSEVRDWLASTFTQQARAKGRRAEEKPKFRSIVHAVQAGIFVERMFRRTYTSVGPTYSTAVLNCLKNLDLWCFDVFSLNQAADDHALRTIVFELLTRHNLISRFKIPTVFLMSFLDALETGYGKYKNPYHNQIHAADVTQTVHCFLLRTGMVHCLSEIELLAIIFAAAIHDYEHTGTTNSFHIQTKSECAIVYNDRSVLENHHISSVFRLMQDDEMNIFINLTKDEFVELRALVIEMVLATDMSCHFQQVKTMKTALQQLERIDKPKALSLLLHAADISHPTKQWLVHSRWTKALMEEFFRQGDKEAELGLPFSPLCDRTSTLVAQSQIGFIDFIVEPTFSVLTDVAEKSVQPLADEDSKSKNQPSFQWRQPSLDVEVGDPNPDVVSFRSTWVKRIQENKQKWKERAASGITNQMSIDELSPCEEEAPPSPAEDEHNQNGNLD
Text: The HTRF PDE1 assay utilized the HTRF (Homogenous Time Resolved Fluorescence) technology, which is based on the competition between unlabeled cyclic nucleotide and cyclic nucleotide labeled with XL665 for the binding to cyclic nucleotide-specific antibody labeled with cryptate. The HTRF signal is thus inversely proportional to the concentration of cyclic nucleotide being measured. Since phosphodiesterases break down cyclic nucleotides, the HTRF signal was used to determine PDE activity.
The Cisbio cGMP HTRF assay kit (Cat no: 62GM2PEC) was utilized. Cyclic GMP was diluted to 200 nM in HTRF assay buffer (1 mM CaCl2, 10 mM MgCl2, 10 mM Tris-HCl, 0.1% BSA, pH 7.4). […] PDE (1A3, 1B or 1C) was diluted to 2× working concentration in HTRF assay buffer with 2 μg/ml Calmodulin, and 10 μl was added to initiate the reaction. The plate was then incubated for 45 minutes at 27° C. d2-Labelled cyclic GMP and anti-cGMP cryptate were diluted in 50 mM phosphate buffer, 0.8 M KF, 1% Triton X100, 0.2% BSA, pH 7.0. Following incubation 10 μl d2-cGMP, then 10 μl anti cGMP cryptate were added to each well and the plate was incubated for 60 minutes at room temperature. The plate was then read on Perkin Elmer EnVision at 2 different FRET readings ex/em 340 nm/665 nm and 340 nm/615 nm.

`CO[C@@H]1CCN(c2nn3c(C4CCOCC4)ncc3c(=O)n2C)C1` [Example 188]: the IC50 under setting [1] was below 1 µM. Same read-out and setting: with `Cn1c(N2CC[C@@H](Oc3ccc(F)cn3)C2)nn2c(C3CCOCC3)ncc2c1=O` [Example 189] the figure was below 1 µM. As to `Cn1c(N2CC[C@H](Oc3ccc(F)cn3)C2)nn2c(C3CCOCC3)ncc2c1=O` [Example 190], the IC50 under setting [1] is below 1 µM. As to `COC1CCN(c2nn3c(C4CCOCC4)ncc3c(=O)n2C)CC1` [Example 191], under setting [1], the IC50 was below 1 µM. The same measure, in the same setting: as for `COCC1CCN(c2nn3c(C4CCOCC4)ncc3c(=O)n2C)CC1` [Example 192], the figure is below 1 µM; as for `COCCC1CCN(c2nn3c(C4CCOCC4)ncc3c(=O)n2C)CC1` [Example 193], below 1 µM. As to `CN(C)C(=O)C1CCN(c2nn3c(C4CCOCC4)ncc3c(=O)n2C)CC1` [Example 194], the IC50 under setting [1] fell in the range of 1 to 10 µM. As to `CC(=O)N1CCN(c2nn3c(C4CCOCC4)ncc3c(=O)n2C)CC1` [Example 195], under setting [1], the IC50 is below 1 µM. For `COCCCN1CCN(c2nn3c(C4CCOCC4)ncc3c(=O)n2C)CC1` [Example 196], the IC50 under setting [1] was below 1 µM. `CN(C)C(=O)CN1CCCN(c2nn3c(C4CCOCC4)ncc3c(=O)n2C)CC1` [Example 197]: under setting [1], the IC50 was below 1 µM. On the same count and under the same terms, with `CCn1c(N2CCCC2)nn2c(C3CCOCC3)ncc2c1=O` [Example 198] the figure was below 1 µM. Take `CCCn1c(N2CCCC2)nn2c(C3CCOCC3)ncc2c1=O` [Example 199]: the IC50 under setting [1] is below 1 µM. Consider `O=c1c2cnc(C3CCOCC3)n2nc(N2CCCC2)n1Cc1ccccc1` [Example 202], for which, under setting [1], the IC50 is below 1 µM. As to `O=c1c2cnc(C3CCOCC3)n2nc(N2CCCC2)n1Cc1ccc(Cl)cc1` [Example 203], the IC50 under setting [1] is below 1 µM. In the case of `Cc1ccc(CNc2nn3c(C4CCC4)ncc3c(=O)n2C)nc1` [Example 204], the IC50 under setting [1] is below 1 µM.

On to `Cn1c(NCc2ccc(Cl)cn2)nn2c(C3CCC3)ncc2c1=O` [Example 205], for which, under setting [1], the IC50 was below 1 µM. The same measure, in the same setting: as for `O=c1c2cnc(C3CCOCC3)n2nc(N2CCCC2)n1CC1CC1` [Example 206, 3-(Cyclopropylmethyl)-2-(pyrrolidin-1-yl)-7-(tetrahydro-2H-pyran-4-yl)imidazo[5,1-f][1,2,4]triazin-4(3H)-one], the figure is 1 to 10 µM. Consider `CC(C)n1c(N2CCCC2)nn2c(C3CCOCC3)ncc2c1=O` [Example 207], for which the IC50 under setting [1] is 10 to 100 µM. As for `CC(C)Cn1c(N2CCCC2)nn2c(C3CCOCC3)ncc2c1=O` [Example 208], the IC50 under setting [1] was in the range of 1 to 10 µM. With `O=c1c2cnc(C3CCOCC3)n2nc(N2CCCC2)n1CCC(F)(F)F` [Example 209], under setting [1], the IC50 fell in the range of 10 to 100 µM. Regarding `COCCn1c(N2CCCC2)nn2c(C3CCOCC3)ncc2c1=O` [Example 210], the IC50 under setting [1] was 10 to 100 µM.

As to `O=c1c2cnc(C3CCOCC3)n2nc(N2CCCC2)n1CC1CCC1` [Example 211], the IC50 under setting [1] is 10 to 100 µM.

For `O=c1c2cnc(C3CCOCC3)n2nc(N2CCCC2)n1CC1CCCC1` [Example 212], the IC50 under setting [1] was 10 to 100 µM. For `O=c1c2cnc(C3CCOCC3)n2nc(N2CCCC2)n1CC1CCCCC1` [Example 213], the IC50 under setting [1] was 1 to 10 µM. Take `O=c1c2cnc(C3CCOCC3)n2nc(N2CCCC2)n1CC1CCOCC1` [Example 214]: under setting [1], the IC50 is 10 to 100 µM. Regarding `O=c1c2cnc(C3CCOCC3)n2nc(N2CCCC2)n1CCC1CCOCC1` [Example 215], the IC50 under setting [1] is 10 to 100 µM.

Turning to `Cc1ccc([C@H]2CCCN2c2nn3c(C(C)C)ncc3c(=O)n2C)cn1` [Example 216, 3-Methyl-2-[(2R)-2-(6-methylpyridin-3-yl)pyrrolidin-1-yl]-7-(propan-2-yl)imidazo[5,1-f][1,2,4]triazin-4(3H)-one], the half-maximal inhibitory concentration (IC50) was below 1 µM. For the compound `Cc1ccc([C@@H]2CCCN2c2nn3c(C(C)C)ncc3c(=O)n2C)cn1` [Example 217, 3-Methyl-2-[(2S)-2-(6-methylpyridin-3-yl)pyrrolidin-1-yl]-7-(propan-2-yl)imidazo[5,1-f][1,2,4]triazin-4(3H)-one], under setting [1], the IC50 lay in the range of 1 to 10 µM.

With `Cc1ccc([C@H]2CCCN2c2nn3c(C(C)C)ncc3c(=O)n2C)nc1` [Example 218, 3-Methyl-2-[(2R)-2-(5-methylpyridin-2-yl)pyrrolidin-1-yl]-7-(propan-2-yl)imidazo[5,1-f][1,2,4]triazin-4(3H)-one], the IC50 under setting [1] was below 1 µM. On the same count and under the same terms, as for `Cc1ccc([C@@H]2CCCN2c2nn3c(C(C)C)ncc3c(=O)n2C)nc1` [Example 219, 3-Methyl-2-[(2S)-2-(5-methylpyridin-2-yl)pyrrolidin-1-yl]-7-(propan-2-yl)imidazo[5,1-f][1,2,4]triazin-4(3H)-one], the figure is below 1 µM; as for `COCCN1CCCN(c2nn3c(C4CCOCC4)ncc3c(=O)n2C)CC1` [Example 220, 2-[4-(2-Methoxyethyl)-1,4-diazepan-1-yl]-3-methyl-7-(tetrahydro-2H-pyran-4-yl)imidazo[5,1-f][1,2,4]triazin-4(3H)-one], 10 to 100 µM; as for `COCC(=O)N1CCCN(c2nn3c(C4CCOCC4)ncc3c(=O)n2C)CC1` [Example 221, 2-[4-(Methoxyacetyl)-1,4-diazepan-1-yl]-3-methyl-7-(tetrahydro-2H-pyran-4-yl)imidazo[5,1-f][1,2,4]triazin-4(3H)-one], 1 to 10 µM. Still for that read-out and setting: with `CN(C)CC(=O)N1CCCN(c2nn3c(C4CCOCC4)ncc3c(=O)n2C)CC1` [Example 222, 2-{4-[(Dimethylamino)acetyl]-1,4-diazepan-1-yl}-3-methyl-7-(tetrahydro-2H-pyran-4-yl)imidazo[5,1-f][1,2,4]triazin-4(3H)-one] the figure was 10 to 100 µM; with `CC(C)c1ncc2c(=O)n(C)c(COc3ccc(Cl)cc3)nn12` [Example 223, 2-[(4-Chlorophenoxy)methyl]-3-methyl-7-(propan-2-yl)imidazo[5,1-f][1,2,4]triazin-4(3H)-one], 1 to 10 µM. Regarding `Cc1ccc(OCc2nn3c(C(C)C)ncc3c(=O)n2C)cc1` [Example 225], the IC50 under setting [1] lay in the range of 1 to 10 µM. `CC(C)c1ncc2c(=O)n(C)c(COc3ccc(F)cc3)nn12` [Example 226]: the IC50 under setting [1] was below 1 µM.

On to `Cc1ccc(OCc2nn3c(C4CCCC4)ncc3c(=O)n2C)cc1` [Example 227], for which the IC50 under setting [1] was in the range of 1 to 10 µM.

In the case of `Cn1c(COc2ccc(F)cc2)nn2c(C3CCCC3)ncc2c1=O` [Example 228], under setting [1], the IC50 lay within 1 to 10 µM. For the compound `CC(C)c1ncc2c(=O)n(C)c(CN3CCCc4cc(Cl)ccc43)nn12` [Example 229, 2-[(6-Chloro-3,4-dihydroquinolin-1(2H)-yl)methyl]-3-methyl-7-(propan-2-yl)imidazo[5,1-f][1,2,4]triazin-4(3H)-one], the IC50 under setting [1] is below 1 µM. As for `CC(C)c1ncc2c(=O)n(C)c(CN(C)c3ccc(C(F)(F)F)cc3)nn12` [Example 230, 3-Methyl-2-({methyl[4-(trifluoromethyl)phenyl]amino}methyl)-7-(propan-2-yl)imidazo[5,1-f][1,2,4]triazin-4(3H)-one], the IC50 under setting [1] was below 1 µM.

As to `Cn1c(CN2Cc3ccccc3C2=O)nn2c(C3CCCC3)ncc2c1=O` [Example 231, 7-Cyclopentyl-3-methyl-2-[(1-oxo-1,3-dihydro-2H-isoindol-2-yl)methyl]imidazo[5,1-f][1,2,4]triazin-4(3H)-one], the IC50 under setting [1] was below 1 µM. Turning to `CC(C)c1ncc2c(=O)n(C)c(CN3Cc4ccccc4C3=O)nn12` [Example 232], the IC50 under setting [1] was 1 to 10 µM.

With `Cn1c(CN2CCCc3cc(Cl)ccc32)nn2c(C3CCCC3)ncc2c1=O` [Example 233], under setting [1], the IC50 is below 1 µM.

Consider `Cn1c(CN2C(=O)c3ccccc3C2=O)nn2c(C3CCCC3)ncc2c1=O` [Example 234], for which, under setting [1], the IC50 is below 1 µM.

Turning to `CN(Cc1nn2c(C3CCCC3)ncc2c(=O)n1C)c1ccc(C(F)(F)F)cc1` [Example 235], under setting [1], the IC50 was below 1 µM. Same read-out and setting: as for `Cc1ccc(-c2nn3c(C4CCOCC4)ncc3c(=O)n2C)cc1` [Example 236, 3-Methyl-2-(4-methylphenyl)-7-(tetrahydro-2H-pyran-4-yl)imidazo[5,1-f][1,2,4]triazin-4(3H)-one], the figure is below 1 µM. `Cc1nn2c(C3CCOCC3)ncc2c(=O)n1CC1CCC(F)(F)CC1` [Example 237, 3-[(4,4-Difluorocyclohexyl)methyl]-2-methyl-7-(tetrahydro-2H-pyran-4-yl)imidazo[5,1-f][1,2,4]triazin-4(3H)-one]: the IC50 under setting [1] was below 1 µM. For `Cn1c(/C=C/c2ccc(F)cc2)nn2c(C3CCOCC3)ncc2c1=O` [Example 240, 2-[(E)-2-(4-Fluorophenyl)ethenyl]-3-methyl-7-(tetrahydro-2H-pyran-4-yl)imidazo[5,1-f][1,2,4]triazin-4(3H)-one], the IC50 under setting [1] is below 1 µM. Regarding `Cn1c(CCc2ccc(F)cc2)nn2c(C3CCOCC3)ncc2c1=O` [Example 241, 2-[2-(4-Fluorophenyl)ethyl]-3-methyl-7-(tetrahydro-2H-pyran-4-yl)imidazo[5,1-f][1,2,4]triazin-4(3H)-one], under setting [1], the IC50 was below 1 µM. The same measure, in the same setting: with `COc1ccc(CCc2nn3c(C4CCOCC4)ncc3c(=O)n2C)cc1` [Example 243, 2-[2-(4-Methoxyphenyl)ethyl]-3-methyl-7-(tetrahydro-2H-pyran-4-yl)imidazo[5,1-f][1,2,4]triazin-4(3H)-one] the figure was below 1 µM.

On to `Cn1c(CCc2ccccn2)nn2c(C3CCOCC3)ncc2c1=O` [Example 244, 3-Methyl-2-[2-(pyridin-2-yl)ethyl]-7-(tetrahydro-2H-pyran-4-yl)imidazo[5,1-f][1,2,4]triazin-4(3H)-one], for which the IC50 under setting [1] is below 1 µM. For the compound `Cn1c(OC[C@H]2CC[C@@H](C(F)(F)F)CC2)nn2c(C3CCOCC3)ncc2c1=O` [Example 248, 3-methyl-7-(tetrahydro-2H-pyran-4-yl)-2-{[cis-4-(trifluoromethyl)cyclohexyl]methoxy}-imidazo[5,1-f][1,2,4]triazin-4(3H)-one], the IC50 under setting [1] is below 1 µM. Take `CCO[C@H]1CC[C@@H](COc2nn3c(C4CCOCC4)ncc3c(=O)n2CC)CC1` [Example 250]: the IC50 under setting [1] is below 1 µM. For `CCn1c(OC[C@H]2CC[C@@H](C(F)(F)F)CC2)nn2c(C3CCOCC3)ncc2c1=O` [Example 252], under setting [1], the IC50 was below 1 µM. On the same count and under the same terms, with `Cn1c(O[C@H]2CC[C@H](C)CC2)nn2c(C3CCOCC3)ncc2c1=O` [Example 254, 3-Methyl-2-[(trans-4-methylcyclohexyl)oxy]-7-(tetrahydro-2H-pyran-4-yl)imidazo[5,1-f][1,2,4]triazin-4(3H)-one] the figure was below 1 µM.
